Assay results as given in patent US20230089867A1, “CYCLIC PENTAMER COMPOUNDS AS PROPROTEIN CONVERTASE SUBTILISIN/KEXIN TYPE 9 (PCSK9) INHIBITORS FOR THE TREATMENT OF METABOLIC DISORDER” (Novartis AG, priority 2018, published 2023).

Target: human PCSK9 (Homo sapiens, UniProt Q8NBP7)
Assay: PCSK9 ligand binding TR-FRET assay (interference with binding of human PCSK9 to human LDLR)
Conditions: for Max % inhibition: PCSK9 FRET assay, efficacy (Amax), 100% = 1 uM unlabeled human PCSK9, 0% = DMSO; for IC50: TR-FRET, human PCSK9 Alexa Fluor 647 / human LDLR extracellular domain-Europium Kryptate, read-out: PCSK9 FRET Assay IC50
Procedure, shortened: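 Threefold compound dilutions were pre-incubated 30 min with PCSK9, after which 4 nM Europium Kryptate-tagged human LDLR ectodomain was added for a further 2 h.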

human PCSK9, sequence (Q8NBP7 153-692): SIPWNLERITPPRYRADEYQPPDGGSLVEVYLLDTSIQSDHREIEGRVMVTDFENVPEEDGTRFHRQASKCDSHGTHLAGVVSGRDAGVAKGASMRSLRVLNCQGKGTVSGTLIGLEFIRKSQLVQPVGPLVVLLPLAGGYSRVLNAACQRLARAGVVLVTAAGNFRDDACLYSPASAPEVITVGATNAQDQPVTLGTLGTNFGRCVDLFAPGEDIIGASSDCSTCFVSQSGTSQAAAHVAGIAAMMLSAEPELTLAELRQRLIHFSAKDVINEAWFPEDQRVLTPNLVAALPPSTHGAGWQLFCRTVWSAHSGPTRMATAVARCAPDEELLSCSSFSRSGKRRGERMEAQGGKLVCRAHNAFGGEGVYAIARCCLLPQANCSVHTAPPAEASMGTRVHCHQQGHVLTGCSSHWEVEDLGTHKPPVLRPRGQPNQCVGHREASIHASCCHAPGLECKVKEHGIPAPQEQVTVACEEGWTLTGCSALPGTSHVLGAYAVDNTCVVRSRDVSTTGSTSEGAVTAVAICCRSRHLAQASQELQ
human PCSK9, sequence (Q8NBP7 31-152 partner limits assumed): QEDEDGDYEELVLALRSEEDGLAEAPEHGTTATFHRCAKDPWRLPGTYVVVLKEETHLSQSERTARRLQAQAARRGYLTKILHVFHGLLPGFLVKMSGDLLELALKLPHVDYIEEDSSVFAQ

Max % inhibition | IC50 | Structure (SMILES)
101.56% | 1.5 nM | COC[C@@H]1NC(=O)[C@H](C)N(Cc2ccc(C)cc2Oc2ccc(-c3cnc(CN(C)C)n3C)cc2)C(=O)C[C@@H](Cc2ccccc2)C(=O)N(C)[C@@H](C)[C@H](C)NC(=O)C[C@H](Cc2ccc(Cl)cc2)N(C)C1=O [Compound 102, (2S,5S,8S,12S,13S,16R)-16-benzyl-8-(4-chlorobenzyl)-1-(2-(4-(2-((dimethylamino)methyl)-1-methyl-1H-imidazol-5-yl)phenoxy)-4-methylbenzyl)-5-(methoxymethyl)-2,7,12,13,14-pentamethyl-1,4,7,11,14-pentaazacyclooctadecane-3,6,10,15,18-pentaone]
109.94% | 1.4 nM | COC[C@@H]1NC(=O)[C@H](C)N(Cc2ccc(Cl)cc2Oc2ccc(-c3cnc([C@@H](C)N(C)C)n3C)cc2)C(=O)C[C@@H](Cc2ccccc2)C(=O)N(C)[C@H]2CCCC[C@@H]2NC(=O)C[C@H](Cc2ccc(Cl)cc2)N(C)C1=O [Compound 104, (4S,7S,10S,14R,16aS,20aS)-14-benzyl-11-(4-chloro-2-(4-(2-((R)-1-(dimethylamino)ethyl)-1-methyl-1H-imidazol-5-yl)phenoxy)benzyl)-4-(4-chlorobenzyl)-7-(methoxymethyl)-5,10,16-trimethylhexadecahydrobenzo[l][1,4,7,11,14]pentaazacyclooctadecine-2,6,9,12,15(3H)-pentaone]
95.01% | 1.4 nM | COC[C@@H]1NC(=O)[C@H](C)N(Cc2ccc(Cl)cc2Oc2ccc(-c3cnc(CN4CC5(COC5)C4)n3C)cc2)C(=O)C[C@@H](Cc2ccccc2)C(=O)N(C)[C@@H](C)CNC(=O)C[C@H](Cc2ccc(Cl)cc2)N(C)C1=O [Compound 189, (2S,5S,8S,13S,16R)-1-(2-(4-(2-(2-oxa-6-azaspiro[3.3]heptan-6-ylmethyl)-1-methyl-1H-imidazol-5-yl)phenoxy)-4-chlorobenzyl)-16-benzyl-8-(4-chlorobenzyl)-5-(methoxymethyl)-2,7,13,14-tetramethyl-1,4,7,11,14-pentaazacyclooctadecane-3,6,10,15,18-pentaone]
104.32% | 1.5 nM | COC[C@@H]1NC(=O)[C@H](CC(=O)N2CC(C)(O)C2)N(Cc2ccc(Cl)cc2Oc2ccc(-c3cnc(CN(C)C)n3C)cc2)C(=O)C[C@@H](Cc2ccccc2)C(=O)N(C)C2CCCCC2NC(=O)C[C@H](Cc2ccc(Cl)cc2)N(C)C1=O (stereo in doubt) [Compound 52, (4S,7S,10S,14R,16aS,20aS)-14-benzyl-11-(4-chloro-2-(4-(2-((dimethylamino)methyl)-1-methyl-1H-imidazol-5-yl)phenoxy)benzyl)-4-(4-chlorobenzyl)-10-(2-(3-hydroxy-3-methylazetidin-1-yl)-2-oxoethyl)-7-(methoxymethyl)-5,16-dimethylhexadecahydrobenzo[l][1,4,7,11,14]pentaazacyclooctadecine-2,6,9,12,15(3H)-pentaone]
100.91% | 1.2 nM | C[C@H]1CNC(=O)C[C@H](Cc2ccc(Cl)cc2)N(C)C(=O)[C@H](CO)NC(=O)[C@H](C)N(Cc2ccc(Cl)cc2Oc2ccc(-c3cnc(CN(C)C)n3C)cc2)C(=O)C[C@@H](Cc2ccccc2)C(=O)N1C [Compound 142, (2S,5S,8S,13S,16R)-16-benzyl-1-(4-chloro-2-(4-(2-((dimethylamino)methyl)-1-methyl-1H-imidazol-5-yl)phenoxy)benzyl)-8-(4-chlorobenzyl)-5-(hydroxymethyl)-2,7,13,14-tetramethyl-1,4,7,11,14-pentaazacyclooctadecane-3,6,10,15,18-pentaone]
98.33% | 1.2 nM | COC[C@@H]1NC(=O)[C@H](CC(=O)N2CCOCC2)N(Cc2ccc(Cl)cc2Oc2ccc(-c3cnc(CN(C)C)n3C)cc2)C(=O)C[C@@H](Cc2ccccc2)C(=O)N(C)[C@H]2CCCC[C@@H]2NC(=O)C[C@H](Cc2ccc(Cl)cc2)N(C)C1=O [Compound 20, (4S,7S,10S,14R,16aS,20aS)-14-benzyl-11-(4-chloro-2-(4-(2-((dimethylamino)methyl)-1-methyl-1H-imidazol-5-yl)phenoxy)benzyl)-4-(4-chlorobenzyl)-7-(methoxymethyl)-5,16-dimethyl-10-(2-morpholino-2-oxoethyl)hexadecahydrobenzo[l][1,4,7,11,14]pentaazacyclooctadecine-2,6,9,12,15(3H)-pentaone]
65.13% | 24.6 nM | COC[C@@H]1NC(=O)[C@H](C)N(Cc2ccc(Cl)cc2Oc2cccc(C(=O)NC3CCN(C)CC3)c2)C(=O)C[C@@H](Cc2ccccc2)C(=O)N(C)[C@@H](C)CNC(=O)C[C@H](Cc2ccc(Cl)cc2)N(C)C1=O [Compound 118, 3-(2-(((2S,5S,8S,13S,16R)-16-benzyl-8-(4-chlorobenzyl)-5-(methoxymethyl)-2,7,13,14-tetramethyl-3,6,10,15,18-pentaoxo-1,4,7,11,14-pentaazacyclooctadecan-1-yl)methyl)-5-chlorophenoxy)-N-(1-methylpiperidin-4-yl)benzamide]
99.12% | 1.7 nM | [2H]C([2H])([2H])N(Cc1ncc(-c2ccc(Oc3cc(Cl)ccc3CN3C(=O)C[C@@H](Cc4ccccc4)C(=O)N(C)[C@@H](C)CNC(=O)C[C@H](Cc4ccc(Cl)cc4)N(C)C(=O)[C@H](COC)NC(=O)[C@@H]3CC)cc2)n1C)C([2H])([2H])[2H] [Compound 49, (2S,5S,8S,13S,16R)-16-benzyl-1-(2-(4-(2-((bis(methyl-d3)amino)methyl)-1-methyl-1H-imidazol-5-yl)phenoxy)-4-chlorobenzyl)-8-(4-chlorobenzyl)-2-ethyl-5-(methoxymethyl)-7,13,14-trimethyl-1,4,7,11,14-pentaazacyclooctadecane-3,6,10,15,18-pentaone]
87.74% | 497 nM | COC[C@@H]1NC(=O)[C@H](CCO)N(Cc2ccc(Cl)cc2Oc2ccc(-c3cnc(CN(C)C)n3C)cc2)C(=O)C[C@@H](Cc2ccccc2)C(=O)N(C)[C@@H](C)CNC(=O)C[C@H](Cc2ccc(Cl)cc2)N(C)C1=O [Compound 87, (2S,5S,8S,13S,16R)-16-benzyl-1-(4-chloro-2-(4-(2-((dimethylamino)methyl)-1-methyl-1H-imidazol-5-yl)phenoxy)benzyl)-8-(4-chlorobenzyl)-2-(2-hydroxyethyl)-5-(methoxymethyl)-7,13,14-trimethyl-1,4,7,11,14-pentaazacyclooctadecane-3,6,10,15,18-pentaone]
71.82% | 5.4 nM | COC[C@@H]1NC(=O)[C@H](C)N(Cc2ccc(Cl)cc2Oc2ccc(-c3cnc4c(c3)CN(C(=O)[C@@H]3CCNC3)CC4)cc2)C(=O)C[C@@H](Cc2ccccc2)C(=O)N(C)[C@@H](C)CNC(=O)C[C@H](Cc2ccc(Cl)cc2)N(C)C1=O [Compound 212, (2S,5S,8S,13S,16R)-16-benzyl-1-(4-chloro-2-(4-(6-((R)-pyrrolidine-3-carbonyl)-5,6,7,8-tetrahydro-1,6-naphthyridin-3-yl)phenoxy)benzyl)-8-(4-chlorobenzyl)-5-(methoxymethyl)-2,7,13,14-tetramethyl-1,4,7,11,14-pentaazacyclooctadecane-3,6,10,15,18-pentaone]
103.17% | 0.9 nM | COC[C@@H]1NC(=O)[C@H](CCCN2CCCC2)N(Cc2ccc(Cl)cc2Oc2ccc(-c3cnc(CN(C)C)n3C)cc2)C(=O)C[C@@H](Cc2cccc[n+]2[O-])C(=O)N(C)[C@H]2CCCC[C@@H]2NC(=O)C[C@H](Cc2ccc(Cl)cc2)N(C)C1=O [Compound 111, 2-(((4S,7S,10S,14R,16aS,20aS)-11-(4-chloro-2-(4-(2-((dimethylamino)methyl)-1-methyl-1H-imidazol-5-yl)phenoxy)benzyl)-4-(4-chlorobenzyl)-7-(methoxymethyl)-5,16-dimethyl-2,6,9,12,15-pentaoxo-10-(3-(pyrrolidin-1-yl)propyl)docosahydrobenzo[l][1,4,7,11,14]pentaazacyclooctadecin-14-yl)methyl)pyridine 1-oxide]
111.41% | 2 nM | COC[C@@H]1NC(=O)[C@H](C)N(Cc2ccc(Cl)cc2Oc2ccc(-c3cnc([C@@H](C)N(C)C)n3C)cc2)C(=O)C[C@@H](Cc2ccccc2)C(=O)N(C)[C@@H](C)[C@H](C)NC(=O)C[C@H](Cc2ccc(Cl)cc2)N(C)C1=O [Compound 261, (2S,5S,8S,12S,13S,16R)-16-benzyl-1-(4-chloro-2-(4-(2-((R)-1-(dimethylamino)ethyl)-1-methyl-1H-imidazol-5-yl)phenoxy)benzyl)-8-(4-chlorobenzyl)-5-(methoxymethyl)-2,7,12,13,14-pentamethyl-1,4,7,11,14-pentaazacyclooctadecane-3,6,10,15,18-pentaone]
48.04% | 23.6 nM | CCN(CC)Cc1cn(-c2ccc(Oc3cc(Cl)ccc3CN3C(=O)C[C@@H](Cc4ccccc4)C(=O)N(C)[C@@H](C)CNC(=O)C[C@H](Cc4ccc(Cl)cc4)N(C)C(=O)[C@H](COC)NC(=O)[C@@H]3C)cc2)nn1 [Compound 120, (2S,5S,8S,13S,16R)-16-benzyl-1-(4-chloro-2-(4-(4-((diethylamino)methyl)-1H-1,2,3-triazol-1-yl)phenoxy)benzyl)-8-(4-chlorobenzyl)-5-(methoxymethyl)-2,7,13,14-tetramethyl-1,4,7,11,14-pentaazacyclooctadecane-3,6,10,15,18-pentaone]
105.97% | 1 nM | COCCN(CCOC)C(=O)C[C@H]1C(=O)N[C@@H](COC)C(=O)N(C)[C@@H](Cc2ccc(Cl)cc2)CC(=O)N[C@H]2CCCC[C@@H]2N(C)C(=O)[C@H](Cc2ccccc2)CC(=O)N1Cc1ccc(Cl)cc1Oc1ccc(-c2cnc(CN(C)C)n2C)cc1 [Compound 218, 2-((4S,7S,10S,14R,16aS,20aS)-14-benzyl-11-(4-chloro-2-(4-(2-((dimethylamino)methyl)-1-methyl-1H-imidazol-5-yl)phenoxy)benzyl)-4-(4-chlorobenzyl)-7-(methoxymethyl)-5,16-dimethyl-2,6,9,12,15-pentaoxodocosahydrobenzo[l][1,4,7,11,14]pentaazacyclooctadecin-10-yl)-N ,N-bis(2-methoxyethyl)acetamide]
